Here are results for four compounds from patent US6747063B2, “Combination therapy for treatment of erectile dysfunction” (Cellegy Pharmaceuticals, Inc., priority 1996, dated 2004).

The conditions of data set [1]: in vivo; cited from earlier work.
For data set [2], the system named is human cavernous artery and cavernosal smooth muscle. The conditions noted are these: cited from earlier work; for interaction of relaxant effects of the two agents: human cavernous artery and cavernosal smooth muscle; for relaxation response: isolated cavernous artery and corpus cavernosum.
Data set [3] has as its system penile erection in patients with previously diagnosed ED. Kind of data set: Erectile response (Rigiscan tumescence and rigidity) after intracavernous injection, patients with no prior PGE1. The data set is classed as in vivo, human. The conditions noted are these: Phase 1 (n=9).
The subject of data set [4] is penile pain in patients with previously diagnosed ED. The data set can be described thus: Patient-reported drug-related pain after intracavernous injection, patients with no prior PGE1. In kind it is in vivo, human. Conditions: Phase 2; IC PGE1 5 and 15 μg alone or with SNP 50 μg. Here is the method: Patients were fifted with the Rigiscan™ tumescence and rigidity recording device. The patients were injected with the intracavernous (IC) drug using up to 2 different doses (PGE1 alone or in combination with sodium nitroprusside (SNP50 μg)) and monitored in real-time for their erectile response. Patients were only given a second injection (higher dose PGE1) if the response to the first injection was less than 70% of maximum tumescence and rigidity. In addition, patients were asked to report any occurrence of pain specific to the injection, but not related to acute discomfort associated with the needle prick.

The test system of data set [5] is penile pain in patients with prior use of PGE1. The data set can be described thus: Penile pain in patients with clinical history of pain with prostaglandin therapy (case reports). Conditions: human, in vivo. On the procedure:
(§1) As detailed below, one of three different modes of administration of NO producing agents were used depending upon the patient. In particular, each of these individuals received a NO donor either through the use of a nitrospray such as Nitrolingual™ or a transdermal patch delivering a NO donor compound, and in three cases, a combination of PGE1 and 50 μg of SNP (in saline or phosphate buffered saline (PBS)).

Data set [6] has as its system penile erection in patients with prior use of PGE1. Kind of data set: Erection in patients with clinical history of pain with prostaglandin therapy (case reports). In kind it is in vivo, human. Conditions: Case No. 2; 10 μg PGE1 at home. Here is the method:
as §1

In data set [7] the test system is penile pain in patients using PGE1. Conditions: cited from earlier work.

“And” between values parts separate entries of the source, which are not always exact repeats. Identical values can stand only once. No end group written: not given here.

Regarding `O=[N+]([O-])OCC(CO[N+](=O)[O-])O[N+](=O)[O-]` [glyceryl trinitrate], the concentration in plasma in data set [1] was 0.2 to 0.4 ng/mL.
On to `[NH-]c1c[n+](N2CCOCC2)no1` [SIN-1, 3-morpholinosydnonimine molsidomine], for which, in data set [2], the “interaction of relaxant effects of the two agents” value is “non-synergistic independent relaxant effects” and the relaxation response entry is “capacity to induce complete relaxations”.
Turning to `CCCCC[C@H](O)/C=C/[C@H]1[C@H](O)CC(=O)[C@@H]1CCCCCCC(=O)O` [PGE1, prostaglandin E1], the “patients with a poor response to both injections” value in data set [3] (IC PGE1 5 μg at 1st visit, PGE1 5 μg+SNP 50 μg at 2nd visit) was 4 of 9. In addition, the “patients who experienced full tumescence” value in data set [3] (lowest dose of PGE1 alone (5 μg IC)) was 2/9. The “patients who experienced drug-related pain” value in data set [4] is given as “None”. The duration of pain entry in data set [5] is “three to four hours”. Besides, the erectile response result in data set [6] is on record as “poor response”. In addition, the “patients reporting a pain response” value in data set [7] (repeated / prolonged use of PGE1) was 40 to 45% and 40-45%. Moreover, in data set [7] (single use of PGE1), the “individuals with a pain response / frequency of pain per injection” value was 3 to 10%. Besides, in data set [7] (transurethral administration, clinic testing), the “men reporting penile pain” value is given as 35.7%.
Consider “vasoactive intestinal peptide (HSDAVFTDNYTRLRKQMAVKKYLNSILN; ends and bridges not checked; UniProt P01282 125-152, looked up) [VIP]”, for which, in data set [2], the “interaction of relaxant effects of the two agents” value is listed as “non-synergistic independent relaxant effects” and the relaxation response result was “not capable of causing concentration dependent relaxation responses”.
